Source: US20050222146A1, “N-substituted-n-sulfonylaminocyclopropane compounds and pharmaceutical use thereof” (priority 2003, published 2005)

How the values were obtained:
aggrecanase-1 = target: T1, aggrecanase-1 (Homo sapiens, UniProt O75173); test: Aggrecanase-1 inhibitory action, Particle Assay (GAG release from aggrecan-containing polyacrylamide particles); type: biochemical; conditions: 37° C. for 15 hr, read-out: Experimental Example 1 IC50 AG1
T1 sequence (O75173 213-837): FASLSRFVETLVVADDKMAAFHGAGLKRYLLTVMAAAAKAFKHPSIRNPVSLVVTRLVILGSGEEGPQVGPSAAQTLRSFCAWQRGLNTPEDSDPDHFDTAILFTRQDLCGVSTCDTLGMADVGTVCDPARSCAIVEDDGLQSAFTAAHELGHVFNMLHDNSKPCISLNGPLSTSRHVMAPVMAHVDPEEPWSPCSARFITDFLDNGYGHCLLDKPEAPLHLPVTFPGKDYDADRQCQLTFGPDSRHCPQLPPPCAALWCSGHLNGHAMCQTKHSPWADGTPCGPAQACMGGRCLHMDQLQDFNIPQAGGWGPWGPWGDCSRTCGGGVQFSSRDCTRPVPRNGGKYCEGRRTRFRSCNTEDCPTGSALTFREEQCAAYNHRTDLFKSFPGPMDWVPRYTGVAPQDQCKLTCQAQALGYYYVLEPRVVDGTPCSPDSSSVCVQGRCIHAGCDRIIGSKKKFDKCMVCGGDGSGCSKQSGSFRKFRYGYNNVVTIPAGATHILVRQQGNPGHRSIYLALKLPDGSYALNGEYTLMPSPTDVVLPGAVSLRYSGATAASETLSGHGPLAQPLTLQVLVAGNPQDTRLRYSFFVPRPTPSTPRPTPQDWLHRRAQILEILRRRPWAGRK
Procedure, shortened: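 IC50 (μM) derived from % inhibition, referenced to enzyme-free and inhibitor-free wells, of GAG release read as 1,9-dimethylmethylene blue absorbance at 595 nm (chondroitin sulfate standard). Substrate: aggrecan-bearing polyacrylamide particles, exposed to enzyme plus compound in Tris-HCl for 15 hr at 37 °C.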

MMP-1 = target: T2, MMP-1 (Homo sapiens, UniProt P03956); test: MMP-1 inhibitory action, Type I collagen Activity Measurement kit (FITC-labeled collagen type I); type: biochemical; conditions: 37° C. for 3 hr, read-out: Experimental Example 2 IC50 MMP1
T2 sequence (P03956 100-469): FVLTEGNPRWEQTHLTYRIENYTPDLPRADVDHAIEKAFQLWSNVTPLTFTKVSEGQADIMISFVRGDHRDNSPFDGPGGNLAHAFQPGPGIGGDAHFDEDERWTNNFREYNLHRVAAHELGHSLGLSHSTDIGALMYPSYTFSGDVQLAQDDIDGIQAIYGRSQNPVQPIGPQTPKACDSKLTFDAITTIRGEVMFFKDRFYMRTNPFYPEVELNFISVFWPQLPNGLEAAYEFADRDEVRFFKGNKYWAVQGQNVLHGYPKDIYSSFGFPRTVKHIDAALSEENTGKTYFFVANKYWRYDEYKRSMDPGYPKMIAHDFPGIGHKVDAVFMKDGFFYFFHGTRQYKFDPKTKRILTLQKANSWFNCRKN

SMILES | IC50 (aggrecanase-1) [nM] | IC50 (MMP-1) [nM]
O=C(O)[C@@]1(N(CCCNc2nn[nH]n2)S(=O)(=O)c2ccc(-c3ccc(Cl)cc3)cc2)C[C@H]1c1ccccc1 (relative stereo) [Example 1-110, (1R*,2S*)-1-{(4′-chloro-biphenyl-4-sulfonyl)-[3-(2H-tetrazol-5-ylamino)-propyl]-amino}-2-phenyl-cyclopropanecarboxylic acid] | < 1000 | ≥ 10000
COC(=O)c1cn(CCN([C@]2(C(=O)O)C[C@H]2c2ccccc2)S(=O)(=O)c2ccc(-c3ccc(Cl)cc3)cc2)cn1 (relative stereo) [Example 1-112, 1-{2-[((1R*,2S*)-1-carboxy-2-phenyl-cyclopropyl)-(4′-chloro-biphenyl-4-sulfonyl)-amino]-ethyl}-1H-imidazole-4-carboxylic acid methyl ester] | < 1000 | ≥ 10000
CNC(=O)c1cn(CCN([C@]2(C(=O)O)C[C@H]2c2ccccc2)S(=O)(=O)c2ccc(-c3ccc(Cl)cc3)cc2)cn1 (relative stereo) [Example 1-113, (R*,2S*)-1-{(4′-chloro-biphenyl-4-sulfonyl)-[2-(4-methylcarbamoyl-imidazol-1-yl)-ethyl]-amino}-2-phenyl-cyclopropanecarboxylic acid] | < 100 | ≥ 10000
O=C(O)[C@@]1(N(CCO)S(=O)(=O)c2ccc(-c3ccc(Cl)cc3)cc2)C[C@H]1c1cccc(Oc2ccccc2)c1 (relative stereo) [Example 1-114, (1R*,2S*)-1-[(4′-chloro-biphenyl-4-sulfonyl)-(2-hydroxy-ethyl)-amino]-2-(3-phenoxy-phenyl)-cyclopropanecarboxylic acid] | < 1000 | ≥ 10000
O=C(O)c1cccc(CN([C@]2(C(=O)O)C[C@H]2c2ccccc2)S(=O)(=O)N2CCN(c3ccc(Cl)cc3)CC2)c1 (relative stereo) [Example 1-115, 3-({((1R*,2S*)-1-carboxy-2-phenyl-cyclopropyl)-[4-(4-chloro-phenyl)-piperazine-1-sulfonyl]-amino}-methyl)-benzoic acid] | < 1000 | ≥ 10000
O=C(O)[C@]12[C@H](CCN1S(=O)(=O)c1ccc(-c3ccc(Cl)cc3)cc1)[C@H]2c1ccccc1 (relative stereo) [Example 2-02, (1R*, 5R*,6S*)-2-(4′-chlorobiphenyl-4-sulfonyl)-6-phenyl-2-aza-bicyclo[3.1.0]hexane-1-carboxylic acid] | ≥ 10000 | ≥ 10000
O=C(O)CN(C1(C(=O)O)C[C@H]1Cc1ccccc1)S(=O)(=O)c1ccc(-c2ccc(Cl)cc2)cc1 (stereo in doubt) [Example 1-3, (1S,2R)-2-benzyl-1-[carboxymethyl-(4′-chloro-biphenyl-4-sulfonyl)-amino]-cyclopropanecarboxylic acid] | < 1000 | ≥ 10000
COc1cccc([C@@H]2CC2(C(=O)O)N(CC(=O)O)S(=O)(=O)c2ccc(-c3ccc(Cl)cc3)cc2)c1 (stereo in doubt) [Example 1-21, (1R*,2S)-1-[carboxymethyl-(4′-chloro-biphenyl-4-sulfonyl)-amino]-2-(3-methoxy-phenyl)-cyclopropanecarboxylic acid] | < 1000 | ≥ 10000
NC(=O)CN(C1(C(=O)O)C[C@H]1c1ccccc1)S(=O)(=O)c1ccc(-c2ccc(Cl)cc2)cc1 (stereo in doubt) [Example 1-36, (1R*,2S)-1-[carbamoylmethyl-(4′-chloro-biphenyl-4-sulfonyl)-amino]-2-phenyl-cyclopropanecarboxylic acid] | < 1000 | ≥ 10000
O=C(O)CN([C@]1(C(=O)O)C[C@H]1c1ccccc1)S(=O)(=O)c1ccc(-c2ccc(Cl)cc2)cc1 [Example 1-2, (1R,2S)-1-[carboxymethyl-(4′-chloro-biphenyl-4-sulfonyl)-amino]-2-phenyl-cyclopropanecarboxylic acid] | < 100 | ≥ 10000
O=C(O)CN(C1(C(=O)O)CC1c1cccc(OCc2ccccc2)c1)S(=O)(=O)c1ccc(-c2ccc(Cl)cc2)cc1 (stereo not drawn) [Example 1-50] | < 1000 | ≥ 1000
O=C(O)C1(N(Cc2noc(=O)[nH]2)S(=O)(=O)c2ccc(-c3ccc(Cl)cc3)cc2)CC1c1ccccc1 (stereo not drawn) [Example 1-64, (R*,2S*)-1-[(4′-chlorobiphenyl-4-sulfonyl)-(5-oxo-4,5-dihydro[1.2.4]oxadiazol-3-ylmethyl)-amino]-2-phenylcyclopropanecarboxylic acid] | < 100 | ≥ 10000
O=C(O)c1cnn(CCN(C2(C(=O)O)CC2c2ccccc2)S(=O)(=O)c2ccc(-c3ccc(Cl)cc3)cc2)c1 (stereo not drawn) [Example 1-79, 1-{2-[(1R*,2S*)-1-carboxy-2-phenyl-cyclopropyl)-(4′-chloro-biphenyl-4-sulfonyl)-amino]-ethyl}-1H-pyrazol-4-carboxylic acid] | < 100 | ≥ 10000
O=C(O)c1cc(CN(C2(C(=O)O)CC2c2ccccc2)S(=O)(=O)c2ccc(-c3ccc(Cl)cc3)cc2)on1 [Example 1-82, 5-{[((R, 2S*-1-carboxy-2-phenyl-cyclopropyl)-(4′-chloro-biphenyl-4-sulfonyl)-amino]-methyl}-isooxazole-3-carboxylic acid] | < 1000 | ≥ 10000
O=C1NS(=O)(=O)N(CCN(C2(C(=O)O)CC2c2ccccc2)S(=O)(=O)c2ccc(-c3ccc(Cl)cc3)cc2)C1=O (stereo not drawn) [Example 1-83, (1R*,2S*)-1-{(4′-chloro-biphenyl-4-sulfonyl)-[2-(1,1,3,4-tetraoxo-llambda*6*-[1,2,5]thiadiazolidin-2-yl)-ethyl]-amino}-2-phenyl-cyclopropanecarboxylic acid] | < 100 | ≥ 10000
NS(=O)(=O)NCCN(C1(C(=O)O)CC1c1ccccc1)S(=O)(=O)c1ccc(-c2ccc(Cl)cc2)cc1 (stereo not drawn) [Example 1-84] | < 1000 | ≥ 10000
O=C(O)c1cccc(CN(C2(C(=O)O)CC2c2cccc(OCCn3ccnc3)c2)S(=O)(=O)c2ccc(-c3ccc(Cl)cc3)cc2)c1 (stereo not drawn) [Example 1-95, 3-{[{(1R*,2S*-1-carboxy-2-[3-(2-imidazol-1-yl-ethoxy)-phenyl]-cyclopropyl}-(4′-chloro-biphenyl-4-sulfonyl)-amino]-methyl}-benzoic acid] | < 100 | ≥ 1000
O=C(O)c1cccc(CN(C2(C(=O)O)CC2c2cccc(Oc3cccnc3)c2)S(=O)(=O)c2ccc(-c3ccc(Cl)cc3)cc2)c1 (stereo not drawn) [Example 1-102, 3-{[{(1R*,2S*-1-carboxy-2-[3-(pyridin-3-yloxy)-phenylcyclopropyl}-(4′-chloro-biphenyl-4-sulfonyl)-amino]-methyl}-benzoic acid] | < 100 | ≥ 10000
O=C(O)C(=O)c1ccc(CN(C2(C(=O)O)CC2c2ccccc2)S(=O)(=O)c2ccc(-c3ccc(Cl)cc3)cc2)cc1 (stereo not drawn) [Example 1-103, (1R*,2S*)-1-[(4′-chloro-biphenyl-4-sulfonyl)-(4-oxalyl-benzyl)-amino]-2-phenyl-cyclopropanecarboxylic acid] | < 100 | ≥ 10000
O=C(O)c1cn(CCN(C2(C(=O)O)CC2c2ccccc2)S(=O)(=O)c2ccc(-c3ccc(Cl)cc3)cc2)cn1 (stereo not drawn) [Example 1-104, 1-{2-[(1R*,2S*)-1-carboxy-2-phenyl-cyclopropyl)-(4′-chloro-biphenyl-4-sulfonyl)-amino]-ethyl}-1H-imidazole-4-carboxylic acid] | < 100 | ≥ 10000
O=C(O)[C@@]1(N(CCN2CCOCC2)S(=O)(=O)c2ccc(-c3ccc(Cl)cc3)s2)C[C@H]1c1ccccc1 [Example 2-14, (1R,2S)-1-[[5-(4-Chloro-phenyl)-thiophene-2-sulfonyl]-(2-morpholin-4-yl-ethyl)-amino]-2-phenyl-cyclopropanecarboxylic acid] | ≥ 1000 | ≥ 10000
